What was measured:
[1] = Solubility of 4′-epidaunorubicin hydrochloride (stated in words, no method given); format: physicochemical
[2] = Thermal stability / decomposition of 4′-epidaunorubicin hydrochloride crystals (thermogravimetric analysis); format: physicochemical; settings: for temperature at which the product decomposed: crystals obtained in the example
From the text: FIG. 2 is a graph showing the thermogravimetric analysis (TGA) of 4′-epidaunorubicin hydrochloride. The data were obtained using the instrument NETZSCH TG 209 (sample mass: […], range: 24.0/10.0 (K/min)/250.0, crucible: Al2O3).

solubility of amorphously precipitated material ([1]; amorphous precipitate, solvent not stated): only purely soluble
solubility in methanol ([1]; methanol, crystalline form versus amorphous form, hydrochloride): improved solubility in methanol
thermal stability ([2]; crystalline form): high thermal stability
temperature at which the product decomposed ([2]; listed as Example 1, hydrochloride): 191 °C
temperature at which the product decomposed ([2]; listed as Example 2, hydrochloride): 191 °C
temperature at which the product decomposed ([2]; listed as Example 3, hydrochloride): 190 °C
temperature at which the product decomposed ([2]; listed as Example 4, hydrochloride): 190 °C
Structure (SMILES): COc1cccc2c1C(=O)c1c(O)c3c(c(O)c1C2=O)C[C@@](O)(C(C)=O)C[C@@H]3O[C@H]1C[C@H](N)[C@@H](O)[C@H](C)O1.Cl [4′-epidaunorubicin hydrochloride]
